Read-outs that look alike come from different tables or passages of the source.
Tests used:
[1] = test system: L-selectin ligand activity of human CLA+ T-cells; experiment: Parallel-plate flow chamber, CLA+ T-cell rolling on L-selectin chimera; type: cell-based
Procedure: Tethering and rolling of human T-cells on recombinant human E- and P-selectin-Ig chimera (provided by Dr. Robert Fuhlbrigge, Harvard Medical School) and human L-selectin-Ig (gift from Dr. Ray Camphausen, Wyeth/Genetics Institute, Inc., Cambridge, Mass.) were analyzed in the parallel-plate flow chamber under physiologic shear stress conditions (3). To prepare E- and P-selectin-Ig chimera spots, protein A (300 μg/15 μl 0.1M NaHCO3) was adsorbed to Ten-twenty-nine™ Petri dishes for 2 h at 37° C. Human serum albumin ([…] PBS) then added and incubated for 2 h at 37° C. to block non-specific binding sites. E-selectin-Ig (50 ng/50 μl PBS) or P-selectin-Ig (50 ng/50 μl PBS) solutions was pipetted directly over the pre-existing protein A spots for 18 h at 4° C. To prepare L-selectin-Ig spots, L-selectin-Ig (300 ng/15 μl PBS) or isotype control human IgG (300 ng/15 μl) were adsorbed directly to plastic (non-protein A-coated) for 18 h at 4° C. and blocked in 100% FBS for 2 h at 4° C.
CLA^+ T-cells or freshly isolated PBL were treated with neuraminidase and metabolic glycosylation inhibitors or with protease (bromelain) as described above, washed twice in HBSS, suspended at 2×10^6/ml in HBSS/10 mM HEPES/2 mM CaCl2 (H/H/Ca^++) and infused into the chamber over selectin chimeras. Protease treatment was performed to control for residual E-selectin activity not attributable to the expression of CLA on a protein scaffold. Cell tethering was permitted at 0.6 dynes/cm^2 for 1 min, then stepwise increments in shear stress every 15 sec were employed to a final shear stress level of 60 dynes/cm^2. The number of cells rolling/viewing field (at 100× magnification) was quantified at each level of shear stress in triplicates for a minimum of three experiments. […] Negative control experiments were performed in parallel, wherein cell binding was examined in H/H adhesion assay medium containing 5 mM EDTA as well as assaying cell binding to human IgG isotype control.
Utilizing the parallel-plate flow chamber under physiologic shear stress conditions, E-, P- and L-selectin ligand activities of human CLA^+ T-cells treated were analyzed in an identical manner as cells prepared for Western blotting and autoradiography studies.

[2] = test system: HECA-452 epitopes on PSGL-1; experiment: Western blot of HECA-452 epitopes on PSGL-1 of CLA+ T-cells; type: cell-based, human
Procedure: For analysis of CLA expression on T-cells treated with glycoconjugate modifiers, CLA^+ T-cells were first pretreated with neuraminidase (0.1 U/ml at 37° C. for 1 h) to eliminate functional CLA and cleave all HECA-452 reactive epitopes from the cell surface (35–38). Since we wanted to investigate whether these compounds directly affected CLA expression and function, neuraminidase pretreatment followed by incubations with glycosylation modifiers allowed for examination of de novo synthesized CLA/HECA-452 epitopes re-expressed on the cell surface. After neuraminidase digestion, cells were then incubated with tunicamycin (0.02 mM) (an inhibitor of GlcNAc phosphotransferase, the initial step of N-glycosylation), swainsonine (0.23 mM) (an inhibitor of α-mannosidase II and complex-type N-glycosylation), 4-F-GlcNAc (0.05 mM) (putative inhibitor of poly-N-acetyllactosamine biosynthesis), BAG (an inhibitor of O-glycan biosynthesis) (<2 mM) or GlcNAc (5 mM) (negative control, naturally-occurring metabolic counterpart of 4-F-GlcNAc)for 30 h in the presence of human recombinant IL-2. […] Concentrations for BAG were selected based on maximal O-glycosylation inhibitory effects at non-growth inhibitory concentrations as previously reported (39). To determine a suitable concentration of 4-F-GlcNAc for examining glycoconjugate-modifying effects without influencing cell growth or protein synthesis, we performed preliminary growth inhibitory experiments of cells incubated with 4-F-GlcNAc for 2 cell doublings (˜36 h) at 37° C. (cell viability assessed by Trypan-blue exclusion).
For lysate preparation, cells (including radiolabeled cells) were washed 3× in ice cold PBS and lysed in buffer containing 150 mM NaCl, 50 mM Tris-HCl pH 7.4, 1 mM EDTA, 0.02% NaAzide, 20 μg/ml PMSF, Complete™ protease inhibitors cocktail tablets (Roche Molecular Biochemicals) and 2% NP-40 (250 μl/10^8 cells). Following 2 h incubation on ice, insoluble cellular debris was pelleted by centrifugation for 30 min at 10,000×g at 4° C. and solubilized protein lysate was collected and quantified by Bradford protein assay (Sigma Chemical). SDS was added to a final concentration of 1% in lysate preparations utilized for immunoprecipitation experiments.
For SDS-PAGE and Western blotting, cell lysates, membrane proteins or immunoprecipitates were diluted and boiled in reducing sample buffer, and separated on 7–9% SDS-PAGE gels. Resolved protein was transferred to Sequi-blot™ PVDF membrane (Bio-Rad, Inc., Hercules, Calif.) and blocked with FBS for 1 hr at RT. Blots were incubated with rat IgM anti-human CLA HECA-452 (1 μg/ml), mouse IgG anti-human PSGL-1 moAbs PL-2 (1 μg/ml), 203, 4F9 and 4D8 (1 μg each/ml), or mouse IgG anti-human CD43 L60 (1 μg/ml) for 1 hr at RT. Isotype control immunoblots using either rat IgM or mouse IgG were performed in parallel to evaluate non-specific reactive proteins. After three washes with PBS/0.1%Tween-20 (10 min/wash), blots were incubated with the respective secondary Ab, AP-conjugated goat anti-rat IgM (1:400) or goat anti-mouse IgG (1:8000). AP substrate, Western Blue® (Promega, Madison, Wis.) was then added to develop blots.
Cells were then re-cultured in the presence of glycosylation inhibitor, diluent control (PBS) or molecular control (GlcNAc) for 30 hr and then harvested for CLA expression and functional analysis. […] To assess the duration of anti-carbohydrate effects on HECA-452 expression on PSGL-1, cells treated with 4-F-GlcNAc for 30 h and were then re-cultured in non-4-F-GlcNAc-containing medium for 72 h.

[3] = 30 h after neuraminidase, tunicamycin 0.02 mM, swainsonine 0.23 mM, 4-F-GlcNAc 0.05 mM, BAG 2.0 mM, GlcNAc 5.0 mM

| Compound | de novo synthesized HECA-452 epitopes on PSGL-1 (Western blot) [2, 3] | rolling adhesions on L-selectin chimera [1] | de novo synthesized HECA-452 epitopes on PSGL-1 (Western blot) [2] | also measured |
| --- | --- | --- | --- | --- |
| CC(=O)N[C@H]1C(OC(C)=O)O[C@H](COC(C)=O)[C@@H](F)[C@@H]1OC(C)=O (stereo partly drawn) [4-F-GlcNAc, 2-acetamido-2-deoxy-1,3,6-tri-O-acetyl-4-deoxy-4-fluoro-D-glucopyranose] | marked reduction | – | – | rolling adhesions on L-selectin chimera ([1]; at 2.0 dynes/cm^2, tunicamycin 0.02 mM, swainsonine 0.23 mM, 4-F-GlcNAc 0.05 mM, BAG 2.0 mM, p<0.01): significant reductions; potency at lowering HECA-452 expression relative to BAG, on a molar basis [2]: more potent than BAG; duration of suppression of HECA-452 expression on PSGL-1 after removal of drug ([2]; treated for 30 h then re-cultured in non-4-F-GlcNAc-containing medium for 72 h): 48 h |
| CC(=O)N[C@H]1C(O)O[C@H](CO)[C@@H](O)[C@@H]1O (stereo partly drawn) [GlcNAc, N-acetylglucosamine] | not affected | – | – | recovery of L-selectin ligand activity ([1]; 30 h following neuraminidase digestion, drug control): > 80 % recovery |
| O[C@H]1[C@H]2[C@H](O)CCCN2C[C@H]1O [swainsonine] | – | no effect | not affected | – |
| tunicamycin | – | significant reductions | marked reduction | potency at lowering HECA-452 expression relative to 4-F-GlcNAc, on a molar basis [2]: 2.5 fold; effects on HECA-452 expression ([2]; below 0.015 mM, preliminary, data not shown): minimal effects |
